Legend:
[1] = IVIVE: steady-state concentration (Css), generic HTTK model; set-up: species or system human; conditions: for Css: human steady-state concentration, 1 mg/kg/day exposure rate, loss of parent compound only; for Css (mg/L) / Css (uM): Assuming 1 mg/kg/day dose rate, BW 70 kg; for CLhep: QL 1500000 uL/min; for Fub: fub=fup/(B:P), Fub set to 1 if needed; for CLint: scaled to whole liver: HPGL 110 mill cells/g, Vl 1596 g
How it was run: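 Human Css estimated by IVIVE: plasma protein binding converted to blood fraction unbound via blood-to-plasma partitioning, and experimental Clint scaled with liver scalars to whole liver clearance. AEDs then derived by reverse dosimetry from Css and PFAS in vitro POD, defined as fifth-percentile AC50.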

plasma protein = conditions: cited from earlier work; for fup (fraction unbound in plasma): human plasma; for Mean fu: fraction unbound in plasma, input for IVIVE calculations
[2] = Administered equivalent dose (AED) by reverse dosimetry; set-up: species or system human; conditions: from Css and AC50 POD by reverse dosimetry
Method: IVIVE was performed as previously described to calculate human steady-state concentrations (Css). Briefly, experimental plasma protein binding data presented elsewhere were transformed to fraction unbound in blood using blood-to-plasma partitioning values. Experimental Clint values generated here are used in conjunction with relevant liver scalars to scale up to estimate whole liver clearance. […] Once Css values were established, these were used with the PFAS-specific in vitro POD data to calculate the administered equivalent doses (AEDs) using reverse dosimetry. […] The fifth-percentile AC50 value was used to define the in vitro POD. All relevant inputs, scalars, and calculations are provided in Supplementary Information, as indicated in the results.

[3] = tested on: pooled primary human hepatocyte suspensions; experiment: Hepatic clearance assay (substrate depletion, LC-MS); conditions: for Unadj Clint: unadjusted hepatic intrinsic clearance, Table S4; for Unadj Clint / in vitro CLint exp assay: pooled primary human hepatocyte suspensions; for Unadj Clint / CLint for HTTK / in vitro CLint exp assay: in µL/min/10^6 cells; for In Vitro Clint: Table 3, 0 = no significant clearance; for CLint for HTTK: CLint value carried into HTTK/IVIVE
How it was run: (§1)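 Substrate depletion at 1 μM PFAS in pooled cryopreserved human hepatocytes (~0.5 × 10^6 viable cells/mL, 50-donor pool), 37 °C with shaking, sampled 0–240 min in triplicate. Quantified by LC-MS in negative ion mode against matrix-matched calibration; media-only or heat-inactivated cells as nonmetabolic-loss controls.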

[4] = as above; conditions: both, human
How it was run: as §1

[5] = tested on: pooled primary human hepatocyte suspensions; experiment: Bayesian (MCMC, invitroTKstats) analysis of hepatic clearance data; conditions: Level-4 Bayesian estimate, posterior median; Clint.1 series (Clint.10 all NA)
[6] = pooled human hepatocyte suspension, 1 μM

Row | Structure (SMILES) | Css [1] [µM] | fup (fraction unbound in plasma) (plasma protein) | AED [2] [mg/kg/day] | Unadj Clint [3] | In Vitro Clint [3, 6] [μL/min/million cells] | hepatocyte CLint at 1 μM ([4]; hepatocytes) [µL/min/1e6 cells] | hepatocyte CLint at 1 μM ([4]; cryopreserved pooled primary human hepatocyte suspensions) [µL/min/1e6 cells] | Clint.1.Med [5] | Css (mg/L) [1] [mg/L] | Css (uM) [1] [µM] | CLhep [1] [L/h] | Fub [1] | CLint [1] [µL/min] | Mean fu (plasma protein) | CLint for HTTK [3] | in vitro CLint exp assay [3] | CLint ([3]; Table 2, pooled human hepatocyte suspension, 1 μM, 0-240 min, 0 = slope not significant (p>0.05)) [μL/min/million cells]
1 | O=C(O)C(F)(F)C(F)(F)C(F)(F)C(F)(F)C(F)(F)C(F)(F)C(F)(F)C(F)F [9H-PFNA, 9-H-Perfluorononanoic acid] | 601.28 | 0.0009 | 0.004 | 0.00 | – | – | – | – | – | – | – | – | – | – | – | – | –
2 | O=C(O)C(F)(F)C(F)(F)C(F)(F)C(F)(F)C(F)(F)C(F)(F)C(F)(F)C(F)(F)C(F)(F)C(F)F [11H-PFUnDA, 11-H-Perfluoroundecanoic acid] | 294.69 | 0.0015 | 0.03 | 0.00 | – | – | – | – | – | – | – | – | – | – | – | – | –
3 | O=S(=O)(O)CCC(F)(F)C(F)(F)C(F)(F)C(F)(F)C(F)(F)C(F)(F)F [6:2 FTS, 6:2 Fluorotelomer sulfonic acid] | 12.36 | 0.0143 | 0.89 | 1.40 | 1.4 | 1.4 | – | – | – | – | – | – | – | – | – | – | –
4 | O=C(O)C(F)(F)C(F)(F)C(F)(F)C(F)(F)C(F)(F)C(F)(F)C(F)(F)C(F)(F)C(F)(F)F [PFDA, Perfluorodecanoic acid] | 173.91 | 0.0027 | 0.06 | 0.00 | – | – | – | – | – | – | – | – | – | – | – | – | –
5 | O=C(O)C(F)(F)C(F)(F)C(F)(F)OC(F)(C(F)(F)F)C(F)(F)F [PFPE-1, Perfluoro-4-isopropoxybutanoic acid] | – | – | – | 5.78 | – | 5.78 | – | – | – | – | – | – | – | – | – | – | –
6 | O=C(O)C(F)(F)C(F)(F)C(F)(F)C(F)(F)C(F)(F)F [PFHxA, Perfluorohexanoic acid] | 113.04 | 0.0068 | 0.08 | 1.62 | – | – | – | – | – | – | – | – | – | – | – | – | –
7 | O=S(=O)(O)CCC(F)(F)C(F)(F)C(F)(F)C(F)(F)C(F)(F)C(F)(F)C(F)(F)C(F)(F)F [8:2 FTS, 8:2 Fluorotelomer sulfonic acid] | – | – | – | 1.53 | – | – | 1.53 | – | – | – | – | – | – | – | – | – | –
8 | O=C(O)C(F)(F)C(F)(F)C(F)(F)C(F)(F)C(F)(F)C(F)(F)F [PFHpA, Perfluoroheptanoic acid] | 1657.68 | 0.0004 | 0.01 | 3.12 | – | – | – | – | – | – | – | – | – | – | – | – | –
9 | O=C(O)C(F)(F)C(F)(F)C(F)(F)C(F)(F)C(F)(F)C(F)(F)C(F)F [8H-PFOA, 8H-Perfluorooctanoic acid] | 290.23 | 0.0021 | 0.04 | 0.00 | – | – | – | 0 | – | – | – | – | – | – | – | – | –
10 | O=S(=O)(O)C(F)(F)C(F)(F)C(F)(F)C(F)(F)C(F)(F)C(F)(F)C(F)(F)F [PFHpS, Perfluoroheptanesulfonic acid] | 893.98 | 0.0006 | 0.02 | 1.23 | – | – | – | – | – | – | – | – | – | – | – | – | –
11 | O=C([O-])C(F)(F)C(F)(F)C(F)(F)C(F)(F)C(F)(F)C(F)(F)C(F)(F)F.[K+] [Potassium perfluorooctanoate (KPFOA)] | – | – | – | – | – | – | – | 0 | 134.08 | 323.88 | 0.000 | 0.003273 | 0 | 0.0018 | 0 | 0 | –
12 | O=C(O)C(F)(F)C(F)(F)C(F)(F)C(F)(F)C(F)(F)C(F)(F)C(F)(F)C(F)(F)F [PFNA, Perfluorononanoic acid] | 325.11 | 0.0016 | 0.05 | 0.83 | – | – | – | – | – | – | – | – | – | – | – | – | –
13 | O=S(=O)(O)C(F)(F)C(F)(F)C(F)(F)C(F)(F)C(F)(F)C(F)(F)F [PFHxS, Perfluorohexanesulfonic acid] | 670.49 | 0.0009 | 0.033 | 1.52 | – | – | – | – | – | – | – | – | – | – | – | – | –
14 | O=C(O)C(F)(F)C(F)(F)C(F)(F)C(F)(F)C(F)(F)F [Perfluorohexanoic acid (PFHxA)] | – | – | – | – | – | – | – | 0 | 35.49 | 113.04 | 0.000 | 0.01236 | 0 | 0.0068 | 0 | 1.62 | –
15 | O=C(O)CCC(F)(F)C(F)(F)C(F)(F)C(F)(F)C(F)(F)C(F)(F)F [6:3 FTCA, 6:3 Fluorotelomer carboxylic acid] | 30.01 | 0.0023 | 0.18 | – | 5.05 | – | – | 0 | 11.76 | 30.01 | 0.222 | 0.004182 | 886578 | – | 5.05 | 5.05 | 5.05
16 | O=S(=O)(O)C(F)(F)C(F)(F)C(F)(F)C(F)(F)F [Perfluorobutanesulfonic acid (PFBS)] | – | – | – | – | – | – | – | 0 | 2.25 | 7.51 | 1.150 | 0.02327 | 833910 | 0.0128 | 4.75 | 4.75 | –
17 | O=C(O)C(F)(F)OC(F)(F)C(F)(F)OC(F)(F)C(F)(F)C(F)(F)C(F)(F)F [Perfluoro-3,6-dioxadecanoic acid] | – | – | – | 0.00 | – | – | – | 0 | 344.78 | 773.10 | 0.000 | 0.001273 | 0 | 0.0007 | 0 | 0 | –
18 | O=S(=O)(O)CCC(F)(F)C(F)(F)C(F)(F)C(F)(F)F [4:2 FTS, 4:2 Fluorotelomer sulfonic acid] | 19.12 | 0.0050 | – | 4.28 | 4.28 | 4.28 | – | – | – | – | – | – | – | – | – | – | –
19 | O=C(O)C(F)(F)OC(F)(F)C(F)(F)OC(F)(F)C(F)(F)OC(F)(F)F [Perfluoro-3,6,9-trioxadecanoic acid] | – | – | – | 0.00 | – | – | – | 0 | 804.48 | 1952.80 | 0.000 | 0.0005455 | 0 | 0.0003 | 0 | 0 | –
20 | O=P(O)(O)CCC(F)(F)C(F)(F)C(F)(F)C(F)(F)C(F)(F)C(F)(F)F [2-(Perfluorohexyl)ethylphosphonic acid] | – | – | – | 0.71 | – | – | – | 0 | 19.62 | 45.85 | 0.000 | 0.02236 | 0 | 0.0123 | 0 | 0 | –
